From patent US6403651B1, “Mediation of circadian rhythms” (Luminis Pty Limited, priority 1997, dated 2002)

Assays:
[1] = tested on: melatonin production (urinary aMT.6S excretion); test: 6-Sulphatoxymelatonin rhythmicity after agonist administration at CT18; assay type: in vivo, rat; details: DOI 0.5 mg/kg (1.4 μmole/kg) at CT18, rats in continuous darkness
Method: (§1) Male albino wistar rats (100 g, n=5-10) were housed in metabolism cages in lightproof environment chambers in 12 hours of light followed by 12 hours of darkness, designated 12L:12D. After 3-4 days acclimation to a liquid diet (Osmolite HN) hourly urine collections commenced. The general experimental design was:
Night 1: Control collection-lights remained off from lights out for the remainder of the experiment.
Night 2: Drug administration or light pulses administered at CT 18, i.e., 6 hours after the subjective lights out. Urine collections were maintained throughout the subjective night.
Nights 3 & 4: Urine collections continued to determine any entraining effects of the stimuli.
(§2) Melatonin production was monitored by the urinary excretion of 6-sulphatoxymelatonin (aMT.6S), determined by radioimmunoassay. The time of onset of metabolite excretion was defined as the time of day that the excretion rate exceeded 20 pmol/h.
Two lighting conditions were used to investigate the effects of drugs on SCN/pineal gland function; animals held in a light: dark cycle (L:D; Type VI method of Aschoff) and animals acutely transferred to continuous darkness (DD; Type II method of Aschoff) [Aschoff J. Response curves in circadian periodicity. In Aschoff J., ed. Circadian Clocks. Amsterdam: North Holland Publishing, 1965:95-111]. […]

[2] = tested on: core body temperature rhythm; test: Core body temperature rhythm studies; assay type: in vivo, rat; details: DOI 0.5 mg/kg subcutaneously at CT18, rats
Method: Groups of 5 rats were implanted with temperature transmitters under 3% halothane/oxygen anaesthesia and kept in individual cages on a 12L: 12D photoperiod. Five days after implanting the transmitters, the lights were turned off at the normal time (ZT12) and remained off for 5 days. The animals were injected subcutaneously with either DOI (0.5 mg/kg) or saline vehicle at CT18 (ie 30 hours after last lights off). The temperature was sampled at 10 minute intervals. Five days after the drug treatment the animals were re-entrained to the LD cycle for 8 days and either exposed to a 5 minute/20 lux light pulse 30 hours after re-initiation of constant darkness or left untreated. To determine any delays in the temperature rhythm, the time of the day that the temperature dropped below the group daily mean (37.4° C.) was calculated and the mean delay±SEM determined.

[3] = tested on: DOI induced phase delay in melatonin production; test: Effects of serotonin antagonists on the melatonin response to DOI; assay type: in vivo, rat; details: antagonist 0.07 μmole/kg 30 minutes prior to DOI (1.4 μmole/kg) at CT18
Method: as §1, §2
The effects of the serotonin antagonists ritanserin and ketanserin on the melatonin response to DOI was determined. Both drugs were administered in doses of 0.7, 0.28 and 0.07 μmole/kg, 30 minutes prior to DOI (1.4 μmole/kg; 0.5 mg/kg) at CT 18; In addition, ritanserin (6.3 μmole/kg) and ketanserin (18 μmole/kg) were administered 30 minutes prior to saline injection at CT 18. Both antagonists were dissolved in DMSO and injected in a volume of 200 μl.

[4] = tested on: DOI induced c-Fos in the rat SCN; test: Effects of antagonists on DOI induced c-Fos in the SCN; assay type: in vivo
Method: As a check on the specificity of the response (SCN versus direct pineal effects) experiments were also conducted to monitor c-Fos induction in the SCN in response to the treatments. Animals were sacrificed by decapitation 2 hours after treatments. Brains were removed immediately and fixed by immersion in a 4% solution of paraformaldehyde in 0.1 M buffer (pH 7.4) at room temperature. After approximately 30 hours in the fixative solution at room temperature, the brains were briefly rinsed in phosphate buffered saline (PBS) and 70 μm coronal sections were obtained on a microtome. Free floating sections were permeabilised in a 0.3% solution of Triton X-100 in PBS at 4° C. overnight. […] The immunopositive cells were quantified using a computerised image analysis system.
To determine the effects of the antagonists on c-Fos induction in the SCN, ritanserin and ketanserin were injected in doses of 1.4, 0.7 and 0.14 μmole/kg at ZT 17.5. […] The response to ritanserin (6.3 μmole/kg) and ketanserin (18 μmole/kg) administered 30 minutes prior to saline injection at CT 18 was also determined.

[5] = tested on: light pulse induced phase delay in aMT.6S onset; test: Effect of serotonin antagonists on the melatonin response to a light pulse; assay type: in vivo, rat; details: metergoline 15 mg/kg or ritanserin 3 mg/kg at CT17.5, light 2 lux/1 minute at CT18
Method: Male albino wistar rats (100 g, n=5-10) were housed in metabolism cages in lightproof environment chambers in 12 hours of light followed by 12 hours of darkness, designated 12L:12D. After 3-4 days acclimation to a liquid diet (Osmolite HN) hourly urine collections commenced. The general experimental design was: Melatonin production was monitored by the urinary excretion of 6-sulphatoxymelatonin (aMT.6S), determined by radioimmunoassay. The time of onset of metabolite excretion was defined as the time of day that the excretion rate exceeded 20 pmol/h. To determine the effects of the serotonin antagonist, metergoline (15 mg/kg), ritanserin (3 mg/kg) and LY-53,857 (3 mg/kg) on the melatonin response to a light pulse, the drugs were administered at CT17.5. At CT18, a 2 lux light pulse was given for one minute. Using similar methodology the effects on c-fos induction in the SCN were determined.

5-HT2c receptors = target: T1, 5-HT2c receptors (Homo sapiens, UniProt P28335); details: ritanserin versus ketanserin, stated as known; cited from earlier work
T1 sequence (P28335 33-458): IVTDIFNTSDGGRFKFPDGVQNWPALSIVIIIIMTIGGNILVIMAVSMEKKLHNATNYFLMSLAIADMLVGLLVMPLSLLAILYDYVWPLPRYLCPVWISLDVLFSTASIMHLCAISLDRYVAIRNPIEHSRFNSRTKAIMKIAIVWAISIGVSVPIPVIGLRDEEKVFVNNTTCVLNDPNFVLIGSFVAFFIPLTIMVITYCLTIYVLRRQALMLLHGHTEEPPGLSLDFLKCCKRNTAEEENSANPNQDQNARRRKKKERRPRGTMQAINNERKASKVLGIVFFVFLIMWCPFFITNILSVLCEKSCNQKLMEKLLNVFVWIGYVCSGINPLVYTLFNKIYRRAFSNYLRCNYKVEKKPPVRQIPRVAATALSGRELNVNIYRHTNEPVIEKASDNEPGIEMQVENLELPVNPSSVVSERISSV

COc1cc(CC(C)N)c(OC)cc1I (racemic) [DOI, (+/−)-1-(4-iodo-2,5-dimethoxy-phenyl)-2-aminopropane]
melatonin metabolite (aMT.6S) excretion immediately following injection [1]: acute decrease
morning decline in body temperature [2]: significantly delayed

O=C(c1ccc(F)cc1)C1CCN(CCn2c(=O)[nH]c3ccccc3c2=O)CC1 [ketanserin]
effect on DOI induced phase delay in melatonin production [3]: ineffective
number of cells positive for c-Fos per unilateral SCN after DOI ([4]; antagonist 0.7 μmole/kg 30 minutes before DOI (1.4 μmole/kg)): significantly greater (P<0.05) than those observed following ritanserin 0.7 μmole/kg but not significantly different from the vehicle control

CN1C[C@H](CNC(=O)OCc2ccccc2)C[C@@H]2c3cccc4c3c(cn4C)C[C@H]21 [metergoline]
block of the phase delay in aMT.6S onset induced by the light pulse [5]: failure of the antagonists to block the phase delay

Cc1nc2sccn2c(=O)c1CCN1CCC(=C(c2ccc(F)cc2)c2ccc(F)cc2)CC1 [ritanserin]
effect on DOI induced phase delay in melatonin production [3]: inhibits
inhibition of the increase in appearance of c-Fos caused by a 5-HT2c high affinity compound ([4]; comparison of ritanserin with ketanserin pre-treatment): greater effect than ketanserin
block of the phase delay in aMT.6S onset induced by the light pulse [5]: failure of the antagonists to block the phase delay
affinity for 5-HT2c receptors relative to ketanserin (5-HT2c receptors): 10 fold
